In paper PMC4627311, “Marine alkaloid Monanchocidin a overcomes drug resistance by induction of autophagy and lysosomal membrane permeabilization” (Oncotarget, 2015):
Read-outs that look alike come from different tables or passages of the source.

Experiments:
NCCIT-R cells [1] = test system: NCCIT-R cells
Procedure: (§6) F, Effect of MonA in combination with cisplatin on NCCIT-R cells, examined by the MTT assay. Cells were co-treated with different concentrations of the single substances or their combination for 48 h at a constant molar ratio. The combinational index (CI) values were calculated with CompuSyn software. The ratio of the substances is C(MonA) : C(cisplatin) = 1.2 : 10.
(§7) Co-treatment of MonA and the indicated inhibitors for 48 h was performed. The combinational index (CI) values were calculated with the CompuSyn software for the Fa (fraction affected) = 0.5.
(§8) Determination of synergistic or antagonistic drug effects in combination assays was performed using the Chou-Talalay method [20]. Data were generated by MTT assay. The combinational index (CI) was calculated for the constant drugs ratio with the CompuSyn v.1.0. software (ComboSyn, Inc., Paramus, NJ, USA). Synergism is defined as a CI < 1, whereas antagonism is defined by a CI > 1. The MTT assay was used to examine the combination of MonA at the IC50 with defined inhibitors of autophagy or LMP, or with the IC50 of cisplatin. […] All experiments were performed in triplicates and were repeated at least three times.
MonA : z-VAD-fmk 1.2 µM : 100 µM
MonA : calpeptine 1.2 µM : 50 µM
MonA : leupeptine 1.2 µM : 100 µM
(§9) MonA : protease inhibitors cocktail 1.2 µM : 0.02 tablet/ml
(cOmplete Mini EDTA-free)

NCCIT-R cells [2] = experiment: Western blotting / PAGE of protein extracts; type: cell-based, human; conditions: for Expression of LC3B-II (marker of autophagy): MonA 0.25 – 2 μM long-term or 20 – 50 μM short-term, reference drugs 48 h
Procedure: (§1) Figure 3 Effect of MonA on activation of MAPK and protein degradation A, NCCIT-R cells were analyzed after treatment with MonA for 1 h by Western blotting. Cells treated with 50 μM of anisomycin for 1 h (Aniso) were used as a positive control for MAPK activation. […] C, Analysis of NCCIT-R cells treated with 1 μM of MonA for 1 h. […] Two samples of the spot were randomly picked from the area between ~5 kDa and ~1 kDa, followed by trypsination and identification of peptides by tandem mass spectrometry. D, Analysis of NCCIT-R cells treated with 20 μM of MonA for 1-3 h. Cleavage of PARP and caspase-3 were investigated as hallmarks of apoptosis. Cells treated with 10 μM of cisplatin (CP) for 48 h were used for comparison of the effects of a classical cytotoxic agent. E, Analysis of non-malignant HEK 293T cells treated with 0.0625 – 1 μM of MonA for 48 h.
Figure 5 Effect of cytotoxic compounds on NCCIT-R cells A, NCCIT-R cells were treated with docetaxel, anisomycin, or cisplatin for 48 h. The effect on markers of apoptosis (cleavage of PARP and caspase-3) and autophagy (LC3B-II) were analyzed using Western blotting. While all show induction of apoptosis, expression of LC3B-II is not increased after treatment with these substances. B, Microphotographs of NCCIT-R cells treated with cisplatin or MonA for 48 h show morphological changes induced by the substances. The pictures were made at x100 magnification. Each bar represents 50 μm.
(§2) Preparation of protein extracts and Western blotting were performed as described previously with slight modifications. In brief, 1 × 10^6 cells/well were seeded in Petri dishes (ø 6 cm, 5 mL/dish). Cells were harvested, proteins were extracted, subjected to electrophoresis in 10-15% SDS-polyacrylamide gels at 120 V, and transferred from gel to a 0.2 μm pore PVDF membrane. The membrane was blocked and incubated with the primary antibody according to the manufacturer's protocol (for antibodies used, see the supplementary). After washing, the membranes were incubated with the corresponding secondary antibody for 1 h at RT. Signals were detected using the ECL chemiluminescence system (Thermo Scientific, Rockford, IL, USA) according to the manufacturer's protocol.
SDS-polyacrylamide gels were prepared as described above. Dye-free loading buffer was used for the protein samples preparation. Gels were fixed and stained with colloidal Coomassie Blue overnight, destained, and digitalized as previously described.

NCCIT-R cells [3] = experiment: Drug combination MTT assay, Chou-Talalay method (CI)
Procedure: as §6, §7, §8
MonA : z-VAD-fmk 1.2 µM : 100 µM
MonA : calpeptine 1.2 µM : 50 µM
MonA : leupeptine 1.2 µM : 100 µM
as §9
(cOmplete Mini EDTA-free)

2102EP-R = experiment: MTT cytotoxicity assay, 2102EP-R; type: cell-based, human; conditions: cisplatin-resistant GCT, 72 h
Text: (§3) The human prostate cancer cell lines PC3 (docetaxel resistant, androgen-independent), DU145 (docetaxel sensitive, androgen-independent), LNCaP (docetaxel sensitive, androgen-dependent), human bladder cancer cell lines RT112, RT4, 486p, T24, human embryonic kidney cell line HEK 293T, human embilical vascular endothelium cell line HUVEC, as well as human fibroblast cell lines MRC-5 and MRC-9 were obtained from ATCC (Manassas, VA, USA). The human germ cell tumor cancer cell line NCCIT was obtained from DSMZ (Braunschweig, Germany). TCam-2 and 2102EP cells were kindly provided by Prof. L. Looijenga (Rotterdam, The Netherlands). The cisplatin-resistant sublines NCCIT-R and 2102EP-R have been generated as reported before. Cells were cultured according to the manufacturers instructions (culture conditions are described in the supplementary). Cells were continuously kept in culture for a maximum of 3 months, and were routinely inspected microscopically for stable phenotype and regularly checked for contamination with mycoplasma. Cell line authentication was performed by DSMZ (Braunschweig, Germany) using highly polymorphic short tandem repeat loci.
(§4) The in vitro cytotoxicity of individual substances and drug combinations was evaluated using the MTT (3-(4,5-dimethylthiazol-2-yl)-2,5-diphenyltetrazolium bromide) assay, which was performed as previously described.

T24 = experiment: MTT cytotoxicity assay, T24; type: cell-based, human; conditions: 72 h
Text: as §3, §4

486p = experiment: MTT cytotoxicity assay, 486p; type: cell-based, human; conditions: bladder cancer, 72 h
Text: as §3, §4

2102EP = experiment: MTT cytotoxicity assay, 2102EP; type: cell-based, human; conditions: cisplatin-sensitive GCT, 72 h
Text: as §3, §4

RT4 = experiment: MTT cytotoxicity assay, RT4; type: cell-based, human; conditions: 72 h
Text: as §3, §4

RT112 = experiment: MTT cytotoxicity assay, RT112; type: cell-based, human; conditions: 72 h
Text: as §3, §4

NCCIT-R = experiment: MTT cytotoxicity assay, NCCIT-R; type: cell-based, human
Text: as §3, §4

TCam-2 = experiment: MTT cytotoxicity assay, TCam-2; type: cell-based, human; conditions: TCam-2, cisplatin-sensitive GCT, 72 h
Text: as §3, §4

NCCIT = experiment: MTT cytotoxicity assay, NCCIT; type: cell-based, human; conditions: cisplatin-sensitive GCT, 72 h
Text: as §3, §4

HL-60 = test system: HL-60; design: method as in PMID 20804151; conditions: cited from earlier work
THP-1 = test system: THP-1; design: method as in PMID 20804151; conditions: cited from earlier work
HEK 293T cells = experiment: Western blotting / PAGE, protein degradation in non-malignant cells; type: cell-based, human; conditions: non-malignant HEK 293T, 0.0625 – 1 μM, 48 h
Procedure: as §1
Preparation of protein extracts and Western blotting were performed as described previously with slight modifications. In brief, 1 × 10^6 cells/well were seeded in Petri dishes (ø 6 cm, 5 mL/dish). Cells were harvested, proteins were extracted, subjected to electrophoresis in 10-15% SDS-polyacrylamide gels at 120 V, and transferred from gel to a 0.2 μm pore PVDF membrane. […] Signals were detected using the ECL chemiluminescence system (Thermo Scientific, Rockford, IL, USA) according to the manufacturer's protocol. […]

DU145 = experiment: MTT cytotoxicity assay, DU145; type: cell-based; conditions: Homo sapiens, DU-145, DU145, prostate cancer, 72 h
Text: as §3, §4

HEK 293T = experiment: MTT cytotoxicity assay, HEK 293T; type: cell-based; conditions: Homo sapiens, non-malignant, 72 h
Text: as §3, §4

NCCIT-R cells [4] = experiment: Detection of cathepsin B release; type: cell-based, human; conditions: 48 h
Procedure: (§5) Intact lysosomes were observed as organelles emitting red fluorescence (indicated by arrows). Red fluorescence was quantified using Image J software and is graphically depicted by column bars. B, Cells were treated with MonA for 48 h, and immobilized on glass plates. Samples were permeabilized, blocked, labeled with a primary anti-cathepsin B antibody, followed by a secondary Alexa Fluor 488-conjugated antibody labeling, and analyzed using fluorescent microscopy. […] The microphotographs (A, B) were made at x400 and x100 magnifications. Each bar represents 50 μm.
To assess release of cathepsin B into the extracellular space, NCCIT-R cells were pre-incubated overnight in 6-well plates (2 × 10^5 cells/well), and were then treated with MonA for 48 h. After trypsination, cells were immobilized on glass slides using the cytospin method and dried overnight. Cells were fixed with 2% (w/v) PFA/PBS, washed with PBS and permeabilized with 0.1% (v/v) Triton X-100 solution in 2% (v/v) normal goat serum/PBS for 30 min. […] Then, samples were washed with PBS, covered with DAPI-based ProLong® Gold reagent (Life Technologies) and directly analyzed with AxioScope.A1 (Carl Zeiss) microscope and with the AxioVision40 V4.8 software (Carl Zeiss Imaging Solutions).

prostate cancer cells = experiment: Western blotting of LC3B-II in prostate cancer cells; type: cell-based, human; conditions: 48 h
Procedure: as §2

NCCIT-R cells [5] = experiment: Acridine orange staining of lysosomes (LMP); type: cell-based, human
Procedure: as §5
NCCIT-R cells were pre-incubated overnight in 8-chamber glass slides (5 × 10^4 cells/chamber). The medium was changed with medium containing different concentrations of the substances examined, and cells were treated for 60 min. Then cells were washed twice with PBS solution, stained with 0.5 μg/mL of acridine orange/PBS for 15 min at 37°C, covered with DAPI-based ProLong® Gold reagent (Life Technologies, Eugene, OR, USA), and immediately analyzed with AxioScope.A1 (Carl Zeiss) microscope and with the AxioVision40 V4.8 software (Carl Zeiss Imaging Solutions, Göttingen, Germany). Red fluorescence measurements and quantification were performed with Image J software (NIH, Bethesda, USA).

HUVEC = experiment: MTT cytotoxicity assay, HUVEC; type: cell-based; conditions: Homo sapiens, non-malignant, 72 h
Text: as §3, §4

MRC-9 = experiment: MTT cytotoxicity assay, MRC-9; type: cell-based; conditions: Homo sapiens, MRC9, MRC-9, non-malignant, 72 h
Text: as §3, §4

MRC-5 = experiment: MTT cytotoxicity assay, MRC-5; type: cell-based; conditions: Homo sapiens, MRC5, MRC-5, non-malignant, 72 h
Text: as §3, §4

PC3 = experiment: MTT cytotoxicity assay, PC3; type: cell-based; conditions: Homo sapiens, PC-3, PC3, prostate cancer, 72 h
Text: as §3, §4

HeLa = test system: HeLa; design: method as in PMID 20804151; conditions: cited from earlier work
LNCaP = experiment: MTT cytotoxicity assay, LNCaP; type: cell-based; conditions: Homo sapiens, prostate cancer, 72 h
Text: as §3, §4

z-VAD(OMe)-fmk [z-VAD-fmk]
Effect of inhibitor on cytotoxicity of MonA (combinational index) (NCCIT-R cells [1]): moderate antagonistic effect

COc1ccc(C[C@H]2NC[C@H](O)[C@H]2OC(C)=O)cc1 [anisomycin, Anisomycin]
Markers of apoptosis (cleavage of PARP and caspase-3) (NCCIT-R cells [2]; Western blotting): increase of markers of apoptosis | Expression of LC3B-II (marker of autophagy) (NCCIT-R cells [2]; Western blotting): None of the drugs revealed an up-regulation of LC3B-II

Cn1cnc(N)c2ncnc1-2 [3-MA, 3-methyladenine, reference compound]
Effect of inhibitor on cytotoxicity of MonA (combinational index) (NCCIT-R cells [3]; 48 h, MTT, CI at Fa = 0.5, ratios in Table S3): most pronounced antagonistic effect

CC(=O)O[C@@]12CO[C@@H]1C[C@H](O)[C@@]1(C)C(=O)[C@H](O)C3=C(C)[C@@H](OC(=O)[C@H](O)[C@@H](NC(=O)OC(C)(C)C)c4ccccc4)C[C@@](O)([C@@H](OC(=O)c4ccccc4)[C@H]21)C3(C)C [docetaxel]
Markers of apoptosis (cleavage of PARP and caspase-3) (NCCIT-R cells [2]; Western blotting): increase of markers of apoptosis | Expression of LC3B-II (marker of autophagy) (NCCIT-R cells [2]; Western blotting): None of the drugs revealed an up-regulation of LC3B-II

N.N.[Cl][Pt][Cl] [Cisplatin, cis-diamminedichloroplatinum (II), reference compound]
IC50 (2102EP-R): 4930 nM | IC50 (T24; T24, bladder cancer): 9070 nM | IC50 (486p): 20800 nM | IC50 (2102EP): 644 nM | IC50 (RT4; RT4, bladder cancer): 11900 nM | IC50 (RT112; RT112, bladder cancer): 8990 nM | IC50 (NCCIT-R; cisplatin-resistant GCT, 72 h, MTT): 8930 nM | Markers of apoptosis (cleavage of PARP and caspase-3) (NCCIT-R cells [2]; Western blotting): increase of markers of apoptosis | Expression of LC3B-II (marker of autophagy) (NCCIT-R cells [2]; Western blotting): None of the drugs revealed an up-regulation of LC3B-II | IC50 (TCam-2): 2480 nM | IC50 (NCCIT): 1560 nM

CC/C=C/[C@@H]1CC[C@]2(C[C@H]3CC[C@H]4[C@@H](C(=O)OC(CC)CCCCCCCCCCCCC[C@@H]5O[C@](O)(CCN)[C@H](O)N(CCCN)C5=O)[C@@]5(CCC[C@H](C)O5)NC(=[N+]34)N2)O1 (stereo partly drawn) [MonA, Monanchocidin A]
Cytotoxic activity (HL-60): micro- and nanomolar concentrations | IC50 (2102EP-R; Homo sapiens): 306 nM | IC50 (T24; Homo sapiens, T-24, T24, bladder cancer): 413 nM | Cytotoxic activity (THP-1): micro- and nanomolar concentrations | IC50 (486p; Homo sapiens): 273 nM | Protein degradation (HEK 293T cells): did not reveal any signs of protein degradation | IC50 (DU145): 482 nM | IC50 (2102EP; Homo sapiens): 341 nM | IC50 (HEK 293T): 670 nM | Concentration at which release of cathepsin B into the extracellular space occurred (NCCIT-R cells [4]): ≥ 2 µM | IC50 (RT4; Homo sapiens, RT-4, RT4, bladder cancer): 580 nM | IC50 (RT112; Homo sapiens, RT-112, RT112, bladder cancer): 263 nM | Expression of LC3B-II (marker of autophagy) (prostate cancer cells): up-regulation of LC3B-II | Lysosomal membrane permeabilization (acridine orange fluorescence) (NCCIT-R cells [5]): disappearance of red fluorescence coupled with increased green fluorescence | IC50 (HUVEC): 838 nM | IC50 (MRC-9): 708 nM | IC50 (NCCIT-R; Homo sapiens, 48 h of treatment): 500 to 1000 nM | IC50 (NCCIT-R; Homo sapiens, cisplatin-resistant GCT, 72 h, MTT): 253 nM | IC50 (MRC-5): 756 nM | IC50 (PC3): 420 nM | Effect of MonA in combination with cisplatin (combinational index) (NCCIT-R cells [3]; 48 h co-treatment, C(MonA) : C(cisplatin) = 1.2 : 10): strong synergistic effects | Cytotoxic activity (HeLa): micro- and nanomolar concentrations | IC50 (LNCaP): 265 nM | Activation of MAPK (p38, ERK, JNK) (NCCIT-R cells [2]; 50 μM, 1 h, Western blotting): Activation of p38 and ERK, but not JNK | Expression of LC3B-II (marker of autophagy) (NCCIT-R cells [2]; Western blotting): up-regulation of LC3B-II | Protein degradation (NCCIT-R cells [2]; short term 30 μM - 50 μM or long-term 0.5 μM - 2 μM): Degradation of different proteins was observed | IC50 (TCam-2; Homo sapiens): 440 nM | IC50 (NCCIT; Homo sapiens): 210 nM
